Source: patent US20220119355A1, “SATURATED-RING-FUSED DIHYDROPYRIMIDINONE OR DIHYDROTRIAZINONE COMPOUNDS AND PHARMACEUTICAL USE THEREOF” (Japan Tobacco Inc., priority 2018, published 2022)

Key:
Type in all cases: cell-based
human RORγ [1] = target: T1, human RORγ (Homo sapiens, UniProt P51449); assay: In-vitro reporter gene assay for inhibitory activity against RORγ transcription, Test Method B (pFA/hRORγ LBD / pG5-Luc in CHO cells); conditions: luciferase reporter, CHO cells, 2 days
T1 construct: from Ser253 to Lys518 for human RORγ; expressed in transfected cells; host or cells: CHO cells (transient co-transfection with pG5-Luc)
T1 sequence (P51449 253-518): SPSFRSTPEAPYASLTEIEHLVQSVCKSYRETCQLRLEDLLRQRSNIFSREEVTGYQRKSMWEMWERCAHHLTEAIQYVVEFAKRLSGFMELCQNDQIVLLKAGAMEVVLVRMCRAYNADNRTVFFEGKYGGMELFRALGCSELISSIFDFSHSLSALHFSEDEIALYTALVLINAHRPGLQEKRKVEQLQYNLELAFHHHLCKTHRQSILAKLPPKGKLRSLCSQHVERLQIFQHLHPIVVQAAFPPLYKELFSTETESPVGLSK
Method: (§1) In-Vitro Assay for Inhibitory Activity Against RORγ Transcription
(§2) Inhibitory activity against RORγ transcription was assessed for test compounds by either of the following Test Method A or B of reporter gene assay.
(§3) cDNAs encoding human and mouse RORγ ligand binding domains (LBD) were obtained based on the sequences of human RORγ (Genbank registered number NM_005060.3) and mouse RORγ (Genbank registered number NM_011281.2) (LBD sequences: from Ser253 to Lys518 for human RORγ; from Ile251 to Lys516 for mouse RORγ).
(§4) LBD cDNAs of human and mouse RORγ were inserted into pFA-CMV vector (Agilent Technologies, Inc.), which expresses GAL4-DNA binding domain fusion protein. The resulting plasmids are hereinafter referred to as pFA/hRORγ plasmid and pFA/mRORγ plasmid, respectively.
(§5) pFA/hRORγ plasmid or pFA/mRORγ plasmid was transiently co-transfected into Chinese hamster ovary cells (CHO cells) with pG5-Luc (Promega), reporter plasmid expressing firefly luciferase in a GAL4-dependent manner.
(§6) TransIT (Registered trademark) CHO Transfection Kit (Mirus) was used to co-transfect CHO cells with the plasmids. One day prior to the assay, CHO cells were suspended in HAM F-12 Nutrient medium containing 10% (v/v) fetal bovine serum and seeded at 5.5×10^6 cells per 225 cm^2 cell culture flask each. 72 μL of TransIT (Registered trademark) CHO reagent was added into a 2 mL tube containing 1.55 mL of Opti-MEM, and then mixed and incubated at room temperature for 10 minutes. 50.4 μL of a plasmid solution containing 300 ng of pFA/hRORγ plasmid, 12000 ng of pG5-Luc plasmid, and 11700 ng of pcDNA3.1 plasmid were added into the tube and mixed gently. In the case of mouse assay, a plasmid solution containing 300 ng of pFA/mRORγ plasmid, 12000 ng of pG5-Luc plasmid, and 11700 ng of pcDNA3.1 plasmid was added, instead. The mixture was incubated at room temperature for 10 minutes. 12 μL each of CHO Mojo Reagent were then added into each tube and mixed gently. The mixture was incubated at room temperature for 10 minutes. The resulting transfection reagent was applied to the cell culture. After incubation at 37° C., 5% CO2 for 4 hours, the plasmid-transfected CHO cells were harvested by trypsin treatment. The collected cells were resuspended in culture medium and plated into a 384-well-white plate at 8,000 cells/35 μL/well. The plate was let stand at room temperature for 1 hour and then further incubated at 37° C., 5% CO2 for 3 hours. A test compound was dissolved in dimethyl sulfoxide (DMSO) to obtain a concentration of 10 mM. Each solution was serially diluted with DMSO and further diluted with culture medium just before use. The test compound solutions were added to the cells in the plate at 6 different concentrations. The final concentration of DMSO was 0.2% (v/v). After the addition of test compound, the cells were incubated at 37° C., 5% CO2 for 2 days.
(§7) RORγ transcriptional activity was detected as the intracellular luciferase activity using SteadyLite HTS Reporter Gene Assay System (Perkin Elmer). SteadyLite Reagent was diluted 2.5-fold with Extension buffer (10 mM Tricine, 0.2% (w/v) bovine serum albumin, 0.02% (v/v) Tween-20) to obtain a luciferase substrate solution. Two days after the addition of test compound, 40 μL each of the luciferase substrate solution was added into the 384-well-plate. After the incubation at room temperature for 10 minutes, luminescence of each well was measured with a microplate reader. The luciferase activity derived from the luminescence count in a vehicle-control well treated with 0.2% DMSO alone was defined as 100%, and the luciferase activity after treatment of the test compound was calculated as a percentage, %-of-control, based on the value of the vehicle-control. An EC50 value of the test compound was calculated by curve fitting. The luminescence counts at the concentration of test compound where cytotoxicity was observed were excluded from data analysis. […]

mouse RORγ [2] = target: T2, mouse RORγ (Mus musculus, UniProt P51450); assay: In-vitro reporter gene assay for inhibitory activity against RORγ transcription, Test Method B (pFA/mRORγ LBD / pG5-Luc in CHO cells); conditions: luciferase reporter, CHO cells, 2 days
T2 construct: from Ile251 to Lys516 for mouse RORγ; expressed in transfected cells; host or cells: CHO cells (transient co-transfection with pG5-Luc)
T2 sequence (P51450 251-516): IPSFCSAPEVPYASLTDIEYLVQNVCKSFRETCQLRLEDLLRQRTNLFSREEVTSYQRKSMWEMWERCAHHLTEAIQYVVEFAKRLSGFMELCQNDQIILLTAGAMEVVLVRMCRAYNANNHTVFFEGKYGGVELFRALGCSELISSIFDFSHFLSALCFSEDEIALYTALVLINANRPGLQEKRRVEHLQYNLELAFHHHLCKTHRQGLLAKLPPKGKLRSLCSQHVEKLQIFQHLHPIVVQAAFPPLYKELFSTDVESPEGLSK
Method: as §1, §2, §3, §4, §5, §6, §7

human RORγ [3] = target: T1, human RORγ; assay: In-vitro reporter gene assay for inhibitory activity against RORγ transcription, Test Method A (GAL4-hRORγ LBD / pG5-Luc in CHO cells); conditions: luciferase reporter, 2 days
Method: as §1, §2, §3
(§8) LBD cDNAs of human and mouse RORγ were inserted into pFA-CMV vector (Stratagene), which expresses GAL4-DNA binding domain fusion protein. The resulting plasmids are hereinafter referred to as GAL4-hRORγ plasmid and GAL4-mRORγ plasmid, respectively.
(§9) GAL4-hRORγ plasmid or GAL4-mRORγ plasmid was transiently co-transfected into Chinese hamster ovary cells (CHO cells) with pG5-Luc (Promega), reporter plasmid expressing firefly luciferase in a GAL4-dependent manner.
(§10) TransIT (Registered trademark) CHO Transfection Kit (Mirus) was used to co-transfect CHO cells with the plasmids. One day prior to the assay, CHO cells were suspended in HAM F-12 Nutrient medium containing 10% (v/v) fetal bovine serum and seeded at 6×10^6 cells per 175 cm^2 cell culture flask each. 54 μL of TransIT (Registered trademark) CHO reagent was added into a 15 mL tube containing 1.16 mL of HAM F-12 Nutrient medium without fetal bovine serum, and then mixed and incubated at room temperature for 10 minutes. 36 μL of a plasmid solution containing 400 ng of GAL4-hRORγ plasmid, 9000 ng of pG5-Luc plasmid, and 8600 ng of pcDNA3 plasmid were added into the tube and mixed gently. In the case of mouse assay, a plasmid solution containing 250 ng of GAL4-mRORγ plasmid, 9000 ng of pG5-Luc plasmid, and 8750 ng of pcDNA3 plasmid was added, instead. The mixture was incubated at room temperature for 10 minutes. 9 μL each of CHO Mojo Reagent were then added into each tube and mixed gently. The mixture was incubated at room temperature for 10 minutes. The resulting transfection reagent was applied to the cell culture. After incubation at 37° C., 5% CO2 for 4 hours, the plasmid-transfected CHO cells were harvested by trypsin treatment. The collected cells were resuspended in culture medium and plated into a 384-well-white plate at 8,000 cells/50 μL/well. The plate was let stand at room temperature for 1 hour and then further incubated at 37° C., 5% CO2 for 3 hours. A test compound was dissolved in DMSO to obtain a concentration of 10 mM. Each solution was serially diluted with DMSO and further diluted with culture medium just before use. The test compound solutions were added. to the cells in the plate at 8 different concentrations. The final concentration of DMSO was 0.2% (v/v). After the addition of test compound, the cells were incubated at […], 5% CO2 for 2 days.
(§11) RORγ transcriptional activity was detected as the intracellular luciferase activity using SteadyLite HTS Reporter Gene Assay System (Perkin Elmer). SteadyLite Reagent was diluted five-fold with Extension buffer (10 mM Tricine, 0.2% (w/v) bovine serum albumin, 0.02% (v/v) Tween-20) to obtain a luciferase substrate solution. After the measurement of the cell viability with Resazurin, the medium was removed in the plate and the luciferase substrate solution was added thereto. After the incubation at room temperature for 10 minutes, luminescence of each well was measured with a microplate reader. The luciferase activity derived from the luminescence count in a vehicle-control well treated with 0.2% DMSO alone was defined as 100%, and the luciferase activity after treatment with the test compound was calculated as a percentage, %-of-control, based on the value of the vehicle-control. An EC50 value of the test compound was calculated by curve fitting with GraphPad Prism. The luminescence counts at the concentration of test compound where cytotoxicity was observed were excluded from data analysis. […]

mouse RORγ [4] = target: T2, mouse RORγ; assay: In-vitro reporter gene assay for inhibitory activity against RORγ transcription, Test Method A (GAL4-mRORγ LBD / pG5-Luc in CHO cells); conditions: luciferase reporter, 2 days
Method: as §1, §2, §3, §8, §9, §10, §11

| EC50 (human RORγ [1]) [µM] | EC50 (mouse RORγ [2]) [µM] | EC50 (human RORγ [3]) [µM] | EC50 (mouse RORγ [4]) [µM] | SMILES |
| --- | --- | --- | --- | --- |
| 0.751 | 0.169 |  |  | CC1(C)CC1COc1ccc(C23CCCCC2=CN(CCC(=O)O)C(=O)N3)cc1Cl (racemic) [Example 88] |
| 2.34 | 0.455 |  |  | O=C(O)CCN1C=C2CCCCC2(c2ccc(OC3CCCCC3)c(Cl)c2)NC1=O (racemic) [Example 95] |
|  |  | 0.015 | 0.027 | CC1CCC2(c3ccc(CCC(C)(C)C)c(Cl)c3)NC(=O)N(CCC(=O)O)C=C2C1 (single isomer, unassigned) [Example 69] |
|  |  | 0.541 | 0.516 | C[C@H]1CC2=CN(CCC(=O)O)C(=O)NC2(c2ccc(CCC(C)(C)C)c(Cl)c2)CO1 (single isomer, unassigned) [Example 70] |
|  |  | 0.01 | 0.007 | C[C@@H]1CC2=CN(CCC(=O)O)C(=O)NC2(c2ccc(CCC(C)(C)C)c(Cl)c2)CO1 (single isomer, unassigned) [Example 71] |
|  |  | 0.028 | 0.015 | C[C@@H]1CC2=CN(C34CC(C(=O)O)(C3)C4)C(=O)NC2(c2ccc(CCC(C)(C)C)c(Cl)c2)CO1 (single isomer, unassigned) [Example 72] |
|  |  | 0.061 | 0.038 | CC(C)(C)CCc1ccc(C23CCC(C(F)(F)F)CC2=CN(C24CC(C(=O)O)(C2)C4)C(=O)N3)cc1Cl (single isomer, unassigned) [Example 75] |
|  |  | 2.41 | 3.03 | COC1CC[C@]2(c3ccc(CCC(C)(C)C)c(Cl)c3)NC(=O)N(C34CC(C(=O)O)(C3)C4)C=C2C1 (single isomer, unassigned) [Example 76] |
|  |  | 0.024 | 0.031 | COC1CC[C@@]2(c3ccc(CCC(C)(C)C)c(Cl)c3)NC(=O)N(C34CC(C(=O)O)(C3)C4)C=C2C1 (single isomer, unassigned) [Example 77] |
|  |  | 2.2 | > 3.2 | CC1CCC[C@]2(c3ccc(CCC(C)(C)C)c(Cl)c3)NC(=O)N(C34CC(C(=O)O)(C3)C4)C=C12 (single isomer, unassigned) [Example 78] |
|  |  | 0.018 | 0.022 | CC1CCC[C@@]2(c3ccc(CCC(C)(C)C)c(Cl)c3)NC(=O)N(C34CC(C(=O)O)(C3)C4)C=C12 (single isomer, unassigned) [Example 79] |
|  |  | > 10 | > 10 | CC1CC[C@]2(c3ccc(CCC(C)(C)C)c(Cl)c3)NC(=O)N(CCC(=O)O)C=C2C1 (single isomer, unassigned) [Example 80] |
|  |  | 0.013 | 0.019 | CC1CC[C@@]2(c3ccc(CCC(C)(C)C)c(Cl)c3)NC(=O)N(CCC(=O)O)C=C2C1 (single isomer, unassigned) [Example 81] |
|  |  | 9.87 | 9.79 | CC(C)(C)CCc1ccc([C@]23CCC(C)(C)CC2=CN(CCC(=O)O)C(=O)N3)cc1Cl (single isomer, unassigned) [Example 82] |
|  |  | 0.014 | 0.018 | CC(C)(C)CCc1ccc([C@@]23CCC(C)(C)CC2=CN(CCC(=O)O)C(=O)N3)cc1Cl (single isomer, unassigned) [Example 83] |
|  |  | > 10 | > 10 | COCC1CC[C@]2(c3ccc(CCC(C)(C)C)c(Cl)c3)NC(=O)N(C34CC(C(=O)O)(C3)C4)C=C2C1 (single isomer, unassigned) [Example 84] |
|  |  | 0.033 | 0.073 | COCC1CC[C@@]2(c3ccc(CCC(C)(C)C)c(Cl)c3)NC(=O)N(C34CC(C(=O)O)(C3)C4)C=C2C1 (single isomer, unassigned) [Example 85] |
|  |  | > 3.2 | 2.73 | CC(C)(C)CCc1ccc([C@]23CCCCC2=CN(C24CC(C(=O)O)(C2)C4)C(=O)N3)cc1Cl [Example 53] |
|  |  | 0.064 | 0.035 | CC(C)(C)CCc1ccc([C@@]23CCCCC2=CN(C24CC(C(=O)O)(C2)C4)C(=O)N3)cc1Cl [Example 54, 3-{(S)-8a-[3-Chloro-4-(3,3-dimethyl-butyl)phenyl]-2-oxo-1,5,6,7,8,8a-hexahydro-2H-quinazolin-3-yl}bicyclo[1.1.1]pentane-1-carboxylic acid] |
